Experimental data reported in publication PMC6754133 (PLoS ONE, 2019).
Where two headings read alike, the source gives them in different places.

How the values were obtained:
Hh/SMO pathway = assay: Gli-Luciferase functional assay, NIH 3T3 Gli-RE cells stimulated with ShhN; format: cell-based
Method: After 24 hours, when the cells reached confluency, the culture medium was replaced with 80 μL per well of assay medium [Optimem ± 10 mM HEPES ± 1 mM Sodium Pyruvate + 1× MEM NEAA]. […] Then the cells were stimulated by addition of either ShhN-conditioned media or control media (DMEM±10%BCS) at a final concentration of 10%. Following incubation of the plate for at least 28 hours at 37°C, the cells were simultaneously lysed and supplemented with a luciferase substrate by addition of equal volume of Steady-Glo reagent (Promega, E2520) directly to the assay media. Plates were mixed by pipetting, centrifuged to eliminate foam, incubated for 10 minutes, and analyzed using Perkin Elmer Viktor X luminescence plate reader. The results were analyzed using a non-linear regression (Prism 6, GraphPad Software, La Jolla, CA). Data were normalized to the maximal response observed for ShhN-stimulated cells in the same experiment. A sigmoidal-dose response curve was used as a model for data analysis and IC50 value calculation.

mSMO = biological target: T1, mSMO (Mus musculus, UniProt P56726); assay: BODIPY-Cyclopamine competition binding assay, flow cytometry, HEK293T cells transiently transfected with mSMO; settings: BODIPY-Cyclopamine 5 nM
T1 construct: host or cells: HEK293T
Method: Prior to transfection, cell culture media was replaced with DMEM + 10%FBS for mSMO transfection and with DMEM + 10%BCS for ShhN transfection. The transfected dish was incubated for approximately 24 hours at 37°C. For the production of ShhN conditioned medium, the culture medium from ShhN-transfected HEK293T cells was collected, aliquoted in single use 1.5 mL Eppendorf tubes and either used fresh or stored at -20°C.
HEK293T cells transiently transfected with mSMO were lifted with trypsin (0.25%) and replated at 6×10^4 cells in 80 μL DMEM + 10%FBS per well in a 96 well tissue-culture treated plate (Falcon, 353219). The plate was incubated at 37°C for 24 hours. Serial dilutions of test compounds (10x final concentrations) were prepared in culture media. 10 μL of diluted compounds or control media were added to the plate after which the plate was incubated at 37°C for 10 min. […] Following at least 1.5 hours incubation at 37°C in 5% CO2, cells were lifted by vigorous pipetting, transferred to conical bottom 96-well plates, and centrifuged at 400 × g for 5 min at 4°C. Supernatant was discarded, cells were re-suspended in 300 μL of PBS + 0.5% BSA (freshly prepared), and the plate was analyzed with Guava benchtop flow cytometer. The results were interpreted with FlowJo software (version v10.1). Dose response curves were constructed in Prism 6 (GraphPad Software, La Jolla, CA).

MB-PDX cells [1] = assay: Neurosphere formation assay; format: cell-based, human; settings: Homo sapiens, 168 h, read-out: Inhibition of NS formation, wells
Method: (§1) The final concentration of test compounds in the wells was 10 μM. Cells were incubated at 37 °C for at least seven days. After incubation percent of wells positive with neural stem cell-derived sphere colonies were calculated for each test condition and compared.

DAOY cells [2] = assay: Neurosphere formation assay; format: cell-based, human; settings: Homo sapiens, Daoy, 168 h, read-out: Inhibition of NS formation, wells
Method: as §1

MB-PDX xenograft = assay: Subcutaneous patient-derived medulloblastoma xenograft model, tumor volume; format: in vivo, mouse; settings: NSG mice, 40 mg/kg daily intraperitoneally from day 7, 42 days
Method: Tumor volumes were monitored three times a week in the course of treatment.
NSG mice, 4–6 weeks old, were injected subcutaneously at shoulders and flanks with 1 × 10^6 viable MB-PDX cells in 1:1 HBSS and gelatinous protein mixture Matrigel. […] The tumor size was measured three times a week with a caliper, and tumor volumes were calculated according to the formula (length × width × width × 0.5). At day 42 post-grafting, all mice were euthanized by isoflurane inhalation and cervical dislocation.

Gli-1 mRNA = assay: qRT-PCR of Gli-1 mRNA in MB-PDX xenograft tumors; format: in vivo, mouse
Method: NSG mice, 4–6 weeks old, were injected subcutaneously at shoulders and flanks with 1 × 10^6 viable MB-PDX cells in 1:1 HBSS and gelatinous protein mixture Matrigel. […] The tumor size was measured three times a week with a caliper, and tumor volumes were calculated according to the formula (length × width × width × 0.5). At day 42 post-grafting, all mice were euthanized by isoflurane inhalation and cervical dislocation. Tumors were harvested and stored for qRT-PCR analysis.
Both post-vivo MB-PDX cells and Math1-Cre; ptch1-flox/flox cells were analyzed for Gli-1 mRNA expression. For that, total RNA was extracted from dissociated single cells using QIAGEN RNease Mini Kit and cDNA was prepared using 1μg RNA with iScript cDNA Synthesis Kit (Bio-Rad). SYBR green-based QPCR was performed using murine primers listed as below (GLI1, Forward 5’- [sequence]-3’, Reverse 5’-[sequence]-3’, GAPDH Forward 5'-[sequence] -3', Reverse 5'-[sequence]-3'). mRNA levels were normalized to GAPDH (dCt = Ct gene of interest–Ct GAPDH) and reported as relative mRNA expression (ddCt = 2-^(dCt sample–dCt control)) in fold change.

[3] = system: Gli-target genes in MB-PDX cells; assay: qRT-PCR of Gli-target genes in MB-PDX cells in vitro; format: cell-based, human; settings: 10 uM in-vitro, 24 hours
Excerpt: The results from three independent replicates were used for quantitative analysis and are represented in Fig 7c.
Y-axes show the relative expression levels of mRNA of target genes with respect to mRNA of GAPDH gene.

[4] = system: firefly luciferase under control of cAMP response element (CRE); assay: CRE-luciferase counter assay in HEK293s cells; format: cell-based; settings: different concentrations
Method: (a) The drugs were tested at different concentrations in HEK293s cells stably transfected with firefly luciferase under control of cAMP response element (CRE) (pGL4.29[luc2P/CRE/Hygro], Promega). […] Raw, non-normalized luminescence values are presented, to facilitate the assessment of the extent of inhibition. Shown is a single representative experiment out of the multiple experiments performed on different days. (Mean ± SD)

MB-PDX cells [5] = assay: cells; settings: Homo sapiens, 72 h, read-out: Cell viability assay IC50
DAOY cells [6] = assay: cells; settings: Homo sapiens, 72 h, read-out: Cell viability assay IC50
[7] = system: Mast/stem cell growth factor receptor Kit (KIT_HUMAN); parameters: method as in earlier work; settings: S2/S3 Table; ref [1] Davis MI et al., Nat Biotechnol. 2011; cited from earlier work
[8] = system: Platelet-derived growth factor receptor beta (PGFRB_HUMAN); parameters: method as in earlier work; settings: S2/S3 Table; ref [1] Davis MI et al., Nat Biotechnol. 2011; cited from earlier work
[9] = system: Platelet-derived growth factor receptor alpha (PGFRA_HUMAN); parameters: method as in earlier work; settings: S2/S3 Table; ref [1] Davis MI et al., Nat Biotechnol. 2011; cited from earlier work
[10] = biological target: Mitogen-activated protein kinase MLT (MLTK_HUMAN); parameters: method as in earlier work; settings: S3 Table; ref [1] Davis MI et al., Nat Biotechnol. 2011; cited from earlier work
[11] = biological target: Abelson tyrosine-protein kinase 2 (ABL2_HUMAN); settings: S2/S3 Table; ref [1] Davis MI et al., Nat Biotechnol. 2011; cited from earlier work
[12] = biological target: Carbonic anhydrase 1 (CAH1_HUMAN); settings: S2/S3 Table; ref [2] Parkkila S et al., Bioorg Med Chem Lett. 2009; cited from earlier work
[13] = biological target: Carbonic anhydrase 9 (CAH9_HUMAN); settings: S2/S3 Table; ref [2] Parkkila S et al., Bioorg Med Chem Lett. 2009; cited from earlier work

T1 sequence (P56726 33-793): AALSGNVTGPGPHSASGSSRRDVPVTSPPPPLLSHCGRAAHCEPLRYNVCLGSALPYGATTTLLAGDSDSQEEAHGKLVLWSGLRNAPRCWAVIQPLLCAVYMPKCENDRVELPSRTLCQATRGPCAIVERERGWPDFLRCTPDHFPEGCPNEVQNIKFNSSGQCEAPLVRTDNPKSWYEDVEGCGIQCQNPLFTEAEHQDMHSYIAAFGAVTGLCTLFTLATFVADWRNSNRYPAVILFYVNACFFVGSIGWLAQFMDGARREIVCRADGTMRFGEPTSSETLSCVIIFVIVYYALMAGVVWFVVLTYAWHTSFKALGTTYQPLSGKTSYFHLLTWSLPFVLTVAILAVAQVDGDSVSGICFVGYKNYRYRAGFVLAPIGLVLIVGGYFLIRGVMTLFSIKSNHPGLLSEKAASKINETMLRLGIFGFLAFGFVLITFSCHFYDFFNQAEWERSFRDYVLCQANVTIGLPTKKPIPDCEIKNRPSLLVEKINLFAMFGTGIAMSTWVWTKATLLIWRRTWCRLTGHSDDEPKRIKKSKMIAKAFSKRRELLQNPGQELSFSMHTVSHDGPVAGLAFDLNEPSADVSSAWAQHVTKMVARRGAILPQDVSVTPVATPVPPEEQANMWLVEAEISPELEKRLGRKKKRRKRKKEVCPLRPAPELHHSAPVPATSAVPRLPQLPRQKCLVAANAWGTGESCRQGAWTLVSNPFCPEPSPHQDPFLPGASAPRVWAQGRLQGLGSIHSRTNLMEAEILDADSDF

## Cc1cn(-c2cc(NC(=O)c3ccc(C)c(Nc4nccc(-c5cccnc5)n4)c3)cc(C(F)(F)F)c2)cn1 [Nilotinib]
Hh/SMO pathway; Mus musculus, NIH3T3, read-out: Hh/SMO pathway inhibition IC50, NIH3T3 Gli-RE cells, ShhN-conditioned media, n = 3
  IC50: 374 nM
Hh/SMO pathway; NIH 3T3 Gli-RE cells, ShhN stimulated
  Inhibition of ShhN-induced Hh signaling (in words): inhibited ShhN-induced Hh signaling in a dose-dependent manner
Hh/SMO pathway; data as percent of the maximum luminescence in the absence of antagonists, Fig 4
  Span of concentration response curve: 95.05
Hh/SMO pathway; read-out: Hh/SMO pathway inhibition IC50, NIH3T3 Gli-RE cells, ShhN-conditioned media, n = 3
  IC50: 374 nM
mSMO
  Displacement of BODIPY-Cyclopamine from SMO (in words): displace BODIPY-Cyclopamine
mSMO; HEK293T cells transfected with mSMO, n = 2, estimated, read-out: SMO binding IC50
  IC50: 3110 nM
MB-PDX cells [1]
  inhibition at 10 µM: > 90%
DAOY cells [2]
  inhibition at 10 µM: > 90%
MB-PDX xenograft
  Tumor volume versus vehicle-treated group: significantly smaller tumors
Gli-1 mRNA
  Gli-1 mRNA expression in tumors versus vehicle: significant reduction in the Gli-1 mRNA expression levels
[3]
  mRNA expression of Gli-target genes: decreased expression of GLI1, NMYC, HHIP and BCL2 genes
[4]
  Effect on CRE-driven luciferase activity (independent of SMO): lack of dose-dependent effect
MB-PDX cells [5]
  IC50: 5000 nM
DAOY cells [6]
  IC50: 6000 nM
[7]
  Kd/Ki Value: 29 nM
[8]
  Kd/Ki Value: 73 nM
[9]
  Kd/Ki Value: 180 nM
[10]
  Kd/Ki Value: 11 nM
[11]
  Kd/Ki Value: 26 nM
[12]
  Kd/Ki Value: 29.3 nM
[13]
  Kd/Ki Value: 41.9 nM
